Reference: US10112937B2, “P2X7 modulators and methods of use” (Janssen Pharmaceutica NV, priority 2013, dated 2018)

Target: human P2X7 (Homo sapiens (Human), UniProt Q99572)
Test: P2X7 antagonism in human PBMCs (IL-1β release after LPS + Bz-ATP, ELISA)
Format: cell-based
Details: human PBMCs, test compound 10 μM

Sequence of human P2X7 (Q99572 whole entry): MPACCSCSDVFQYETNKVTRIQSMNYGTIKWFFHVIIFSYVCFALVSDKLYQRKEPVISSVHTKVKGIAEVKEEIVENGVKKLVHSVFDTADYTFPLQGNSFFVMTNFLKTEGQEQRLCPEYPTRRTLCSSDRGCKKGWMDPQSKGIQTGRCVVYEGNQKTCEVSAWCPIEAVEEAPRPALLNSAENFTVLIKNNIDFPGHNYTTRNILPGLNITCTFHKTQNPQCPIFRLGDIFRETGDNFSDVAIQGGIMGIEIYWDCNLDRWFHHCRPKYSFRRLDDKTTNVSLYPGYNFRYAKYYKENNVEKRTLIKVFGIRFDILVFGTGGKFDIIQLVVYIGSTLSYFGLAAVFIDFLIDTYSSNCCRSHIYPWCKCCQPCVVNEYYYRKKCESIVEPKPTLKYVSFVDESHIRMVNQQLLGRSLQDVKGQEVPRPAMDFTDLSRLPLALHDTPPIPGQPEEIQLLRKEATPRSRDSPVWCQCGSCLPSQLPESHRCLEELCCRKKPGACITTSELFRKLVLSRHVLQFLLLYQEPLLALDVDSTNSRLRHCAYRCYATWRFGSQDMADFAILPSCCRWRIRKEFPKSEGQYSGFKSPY

| PBMC 10 μM (% control) | Compound |
| --- | --- |
| 77.7 % control | C[C@@H]1Cc2c(nnn2-c2ccn[nH]2)CN1C(=O)c1cccc(C(F)(F)F)c1F (single isomer, unassigned) [Example 348, (R*)-(2-fluoro-3-(trifluoromethyl)phenyl)(6-methyl-1-(1H-pyrazol-5-yl)-6,7-dihydro-1H-[1,2,3]triazolo[4,5-c]pyridin-5(4H)-yl)methanone] |
| 16.2 % control | C[C@@H]1Cc2c(nnn2-c2ccn[nH]2)CN1C(=O)c1cccc(C(F)(F)F)c1Cl (single isomer, unassigned) [Example 350, (R*)-(2-chloro-3-(trifluoromethyl)phenyl)(6-methyl-1-(1H-pyrazol-5-yl)-6,7-dihydro-1H-[1,2,3]triazolo[4,5-c]pyridin-5(4H)-yl)methanone] |
| 0.6 % control | C[C@H]1Cc2c(nnn2-c2ccn[nH]2)CN1C(=O)c1cccc(C(F)(F)F)c1Cl (single isomer, unassigned) [Example 351, (S*)-(2-chloro-3-(trifluoromethyl)phenyl)(6-methyl-1-(1H-pyrazol-5-yl)-6,7-dihydro-1H-[1,2,3]triazolo[4,5-c]pyridin-5(4H)-yl)methanone] |
| 107.5 % control | Cc1cc(-n2nnc3c2CCN(C(=O)c2cc(C(F)(F)F)ccc2Cl)[C@@H]3C)ncc1F (single isomer, unassigned) [Example 353, (R*)-(2-chloro-5-(trifluoromethyl)phenyl)(1-(5-fluoro-4-methylpyridin-2-yl)-4-methyl-6,7-dihydro-1H-[1,2,3]triazolo[4,5-c]pyridin-5(4H)-yl)methanone] |
| 83.4 % control | Cc1cc(-n2nnc3c2CCN(C(=O)c2cc(C(F)(F)F)ccc2Cl)[C@H]3C)ncc1F (single isomer, unassigned) [Example 354, (S*)-(2-chloro-5-(trifluoromethyl)phenyl)(1-(5-fluoro-4-methylpyridin-2-yl)-4-methyl-6,7-dihydro-1H-[1,2,3]triazolo[4,5-c]pyridin-5(4H)-yl)methanone] |
| −8.2 % control | Cc1ccnc(-n2nnc3c2CCN(C(=O)c2ccnc(C(F)(F)F)c2Cl)[C@@H]3C)c1 (single isomer, unassigned) [Example 359, (R*)-(3-chloro-2-(trifluoromethyl)pyridin-4-yl)(4-methyl-1-(4-methylpyridin-2-yl)-6,7-dihydro-1H-[1,2,3]triazolo[4,5-c]pyridin-5(4H)-yl)methanone] |
| −7.1 % control | Cc1ccnc(-n2nnc3c2CCN(C(=O)c2ccnc(C(F)(F)F)c2Cl)[C@H]3C)c1 (single isomer, unassigned) [Example 360, (S*)-(3-chloro-2-(trifluoromethyl)pyridin-4-yl)(4-methyl-1-(4-methylpyridin-2-yl)-6,7-dihydro-1H-[1,2,3]triazolo[4,5-c]pyridin-5(4H)-yl)methanone] |
| 108.2 % control | Cc1cc(-n2nnc3c2CCN(C(=O)c2ccc(Cl)c(C(F)(F)F)c2)[C@@H]3C)ncc1F (single isomer, unassigned) [Example 365, (R*)-(4-chloro-3-(trifluoromethyl)phenyl)(1-(5-fluoro-4-methylpyridin-2-yl)-4-methyl-6,7-dihydro-1H-[1,2,3]triazolo[4,5-c]pyridin-5(4H)-yl)methanone] |
| 2.0 % control | Cc1cc(-n2nnc3c2CCN(C(=O)c2ccc(Cl)c(C(F)(F)F)c2)[C@H]3C)ncc1F (single isomer, unassigned) [Example 366, (S*)-(4-chloro-3-(trifluoromethyl)phenyl)(1-(5-fluoro-4-methylpyridin-2-yl)-4-methyl-6,7-dihydro-1H-[1,2,3]triazolo[4,5-c]pyridin-5(4H)-yl)methanone] |
| 74.5 % control | Cc1cc(-n2nnc3c2CCN(C(=O)c2ccnc(C(F)(F)F)c2F)[C@H]3C)ncc1F (single isomer, unassigned) [Example 369, (S*)-(3-fluoro-2-(trifluoromethyl)pyridin-4-yl)(1-(5-fluoro-4-methylpyridin-2-yl)-4-methyl-6,7-dihydro-1H-[1,2,3]triazolo[4,5-c]pyridin-5(4H)-yl)methanone] |
